According to the supplement of paper PMC10307832:

Experiments:
Assay in all cases: relative viability (nuclei count vs DMSO), 5 days (fraction); higher = more cells survive
H3255 = system: H3255
Method in brief: (§1)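 Lung cancer cell lines in 1536-well plates were dosed by pin tool the day after seeding, either with one drug alone or with a fixed anchor-drug dose plus five library-drug doses (not always all listed) in √10 steps. After 5 days, cells were fixed and their nuclei stained in one step (final 0.05% Triton X-100, 1% formaldehyde, 1 ug/ml Hoechst), then counted on 4× images. Relative viability is the nuclei count in treated wells divided by that in vehicle wells. Values are medians of duplicate plates.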

NCI-H2085 = system: NCI-H2085
Method in brief: as §1

NCI-H2087 = system: NCI-H2087
Method in brief: as §1

LXF-289 = system: LXF-289
Method in brief: as §1

HCC-15 = system: HCC-15
Method in brief: as §1

NCI-H1437 = system: NCI-H1437
Method in brief: as §1

NCI-H23 = system: NCI-H23
Method in brief: as §1

PC-14 = system: PC-14
Method in brief: as §1

PC-3 [JPC-3] = system: PC-3 [JPC-3]
Method in brief: as §1

HCC-366 = system: HCC-366
Method in brief: as §1

NCI-H2342 = system: NCI-H2342
Method in brief: as §1

LC-2-ad = system: LC-2-ad
Method in brief: as §1

HCC-827 = system: HCC-827
Method in brief: as §1

LCLC-103H = system: LCLC-103H
Method in brief: as §1

NCI-H1975 = system: NCI-H1975
Method in brief: as §1

ABC-1 = system: ABC-1
Method in brief: as §1

NCI-H1666 = system: NCI-H1666
Method in brief: as §1

For `Cc1csc(=NC2CCCCC2)n1/N=C/c1ccc(O)c(O)c1O` [MIM1] + NC(=O)Nc1cc(-c2cccc(F)c2)sc1C(=O)N[C@H]1CCCNC1 [AZD7762] (partner 0.2 µM), the relative viability (H3255; first compound 0.2 µM) was 0.863, the relative viability (H3255; first compound 0.6325 µM) was 0.85 and the relative viability (H3255; first compound 2 µM) was 0.783. It also gave a relative viability (H3255; first compound 6.325 µM) of 0.571, a relative viability (H3255; first compound 20 µM) of 0.371 and a relative viability (NCI-H2085; first compound 0.2 µM) of 1. The relative viability (NCI-H2085; first compound 0.6325 µM) was 0.963, the relative viability (NCI-H2085; first compound 2 µM) was 1.07 and the relative viability (NCI-H2085; first compound 6.325 µM) was 0.766. The relative viability (NCI-H2085; first compound 20 µM) was 0.775, the relative viability (NCI-H2087; first compound 0.2 µM) was 1.31 and the relative viability (NCI-H2087; first compound 0.6325 µM) was 1.29. The relative viability (NCI-H2087; first compound 2 µM) was 1.45, the relative viability (NCI-H2087; first compound 6.325 µM) was 0.87 and the relative viability (NCI-H2087; first compound 20 µM) was 1.05. For the same compound, the relative viability (LXF-289; first compound 0.2 µM) was 1.07, the relative viability (LXF-289; first compound 0.6325 µM) was 0.905 and the relative viability (LXF-289; first compound 2 µM) was 1.12. The relative viability (LXF-289; first compound 6.325 µM) was 0.85, the relative viability (LXF-289; first compound 20 µM) was 0.378 and the relative viability (HCC-15; first compound 0.2 µM) was 1.2. The relative viability (HCC-15; first compound 2 µM) was 1.23, the relative viability (HCC-15; first compound 6.325 µM) was 0.808 and the relative viability (HCC-15; first compound 20 µM) was 0.179. For the same compound, the relative viability (NCI-H1437; first compound 0.2 µM) was 1.02, the relative viability (NCI-H1437; first compound 0.6325 µM) was 1.12 and the relative viability (NCI-H1437; first compound 2 µM) was 1.18. The relative viability (NCI-H1437; first compound 6.325 µM) was 0.916, the relative viability (NCI-H1437; first compound 20 µM) was 0.666 and the relative viability (NCI-H23; first compound 0.2 µM) was 0.277. It also gave a relative viability (NCI-H23; first compound 0.6325 µM) of 0.213, a relative viability (NCI-H23; first compound 2 µM) of 0.192 and a relative viability (NCI-H23; first compound 6.325 µM) of 0.263. It also gave a relative viability (NCI-H23; first compound 20 µM) of 0.139, a relative viability (PC-14; first compound 0.2 µM) of 0.353 and a relative viability (PC-14; first compound 0.6325 µM) of 0.244. For the same compound, the relative viability (PC-14; first compound 2 µM) was 0.288, the relative viability (PC-14; first compound 6.325 µM) was 0.311 and the relative viability (PC-14; first compound 20 µM) was 0.111. For the same compound, the relative viability (PC-3 [JPC-3]; first compound 0.2 µM) was 0.899, the relative viability (PC-3 [JPC-3]; first compound 0.6325 µM) was 0.801 and the relative viability (PC-3 [JPC-3]; first compound 2 µM) was 0.719. The relative viability (PC-3 [JPC-3]; first compound 6.325 µM) was 0.724, the relative viability (PC-3 [JPC-3]; first compound 20 µM) was 0.751 and the relative viability (HCC-366; first compound 0.2 µM) was 0.318. For the same compound, the relative viability (HCC-366; first compound 2 µM) was 0.181, the relative viability (HCC-366; first compound 6.325 µM) was 0.093 and the relative viability (HCC-366; first compound 20 µM) was 0.0374. The relative viability (NCI-H2342; first compound 0.2 µM) was 0.414, the relative viability (NCI-H2342; first compound 0.6325 µM) was 0.475 and the relative viability (NCI-H2342; first compound 2 µM) was 0.431. For the same compound, the relative viability (NCI-H2342; first compound 6.325 µM) was 0.477, the relative viability (NCI-H2342; first compound 20 µM) was 0.543 and the relative viability (LC-2-ad; first compound 0.2 µM) was 0.804. It also gave a relative viability (LC-2-ad; first compound 0.6325 µM) of 0.706, a relative viability (LC-2-ad; first compound 2 µM) of 0.9 and a relative viability (LC-2-ad; first compound 6.325 µM) of 0.389. The relative viability (LC-2-ad; first compound 20 µM) was 0.234, the relative viability (HCC-827; first compound 0.2 µM) was 0.245 and the relative viability (HCC-827; first compound 0.6325 µM) was 0.235. It also gave a relative viability (HCC-827; first compound 2 µM) of 0.165, a relative viability (HCC-827; first compound 6.325 µM) of 0.189 and a relative viability (HCC-827; first compound 20 µM) of 0.304. The relative viability (LCLC-103H; first compound 0.2 µM) was 0.691, the relative viability (LCLC-103H; first compound 0.6325 µM) was 0.79 and the relative viability (LCLC-103H; first compound 2 µM) was 0.759. It also gave a relative viability (LCLC-103H; first compound 6.325 µM) of 0.698, a relative viability (LCLC-103H; first compound 20 µM) of 0.399 and a relative viability (NCI-H1975; first compound 0.2 µM) of 0.765. The relative viability (NCI-H1975; first compound 0.6325 µM) was 0.628, the relative viability (NCI-H1975; first compound 2 µM) was 0.697 and the relative viability (NCI-H1975; first compound 6.325 µM) was 0.549. The relative viability (NCI-H1975; first compound 20 µM) was 0.572, the relative viability (ABC-1; first compound 0.2 µM) was 0.664 and the relative viability (ABC-1; first compound 0.6325 µM) was 0.896. It also gave a relative viability (ABC-1; first compound 2 µM) of 0.814, a relative viability (ABC-1; first compound 6.325 µM) of 0.788 and a relative viability (ABC-1; first compound 20 µM) of 0.341. For the same compound, the relative viability (NCI-H1666; first compound 0.2 µM) was 0.862, the relative viability (NCI-H1666; first compound 0.6325 µM) was 0.789 and the relative viability (NCI-H1666; first compound 2 µM) was 0.829. It also gave a relative viability (NCI-H1666; first compound 6.325 µM) of 0.7 and a relative viability (NCI-H1666; first compound 20 µM) of 0.519.
